{
  "source": "ChEMBL document CHEMBL1811810",
  "about": "“N-substituted homopiperazine barbiturates as gelatinase inhibitors” (Bioorg Med Chem, 2011)",
  "system": "Caco-2",
  "experiment": "cells",
  "conditions": "Homo sapiens, Caco-2, read-out: INH",
  "description": "Inhibition of cell invasion of human Caco2 cells at 100 nM by cell invasion assay",
  "data": [
    {"molecule": "CN(C)c1cccc2c(S(=O)(=O)N3CCCN(C4(c5ccc(Oc6ccccc6)cc5)C(=O)NC(=O)NC4=O)CC3)cccc12", "values": [
      {"measurement": "inhibition at 0.1 µM", "result": 20.1, "unit": "%"}
    ]}
  ]
}
